pIC50: −log10 of the molar value.
Columns and labels:
LRRK2 WT = biological target: T1, LRRK2 WT (Homo sapiens, UniProt Q5S007); test: LRRK2 Kinase Activity Assay (LanthaScreen TR-FRET), wild type; format: biochemical; details: recombinant wild type LRRK2, 25 μM ATP, 400 nM LRRKtide, 60 min
T1 construct: purchased Life Technologies PR8604B
Summary of the method: (§1)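 Recombinant wild-type or G2019S LRRK2 incubated with fluorescein-labeled LRRKtide (ERM-based) peptide, ATP and serially diluted compound for 60 min at room temperature.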

LRRK2 G2019S = biological target: T2, LRRK2 G2019S (Homo sapiens, UniProt Q5S007, G2019S); test: LRRK2 Kinase Activity Assay (LanthaScreen TR-FRET), G2019S; format: biochemical; details: recombinant G2019S-LRRK2, 25 μM ATP, 400 nM LRRKtide, 60 min; class symbols
T2 construct: purchased Life Technologies PV4881
T2 sequence (Q5S007 whole entry G2019S): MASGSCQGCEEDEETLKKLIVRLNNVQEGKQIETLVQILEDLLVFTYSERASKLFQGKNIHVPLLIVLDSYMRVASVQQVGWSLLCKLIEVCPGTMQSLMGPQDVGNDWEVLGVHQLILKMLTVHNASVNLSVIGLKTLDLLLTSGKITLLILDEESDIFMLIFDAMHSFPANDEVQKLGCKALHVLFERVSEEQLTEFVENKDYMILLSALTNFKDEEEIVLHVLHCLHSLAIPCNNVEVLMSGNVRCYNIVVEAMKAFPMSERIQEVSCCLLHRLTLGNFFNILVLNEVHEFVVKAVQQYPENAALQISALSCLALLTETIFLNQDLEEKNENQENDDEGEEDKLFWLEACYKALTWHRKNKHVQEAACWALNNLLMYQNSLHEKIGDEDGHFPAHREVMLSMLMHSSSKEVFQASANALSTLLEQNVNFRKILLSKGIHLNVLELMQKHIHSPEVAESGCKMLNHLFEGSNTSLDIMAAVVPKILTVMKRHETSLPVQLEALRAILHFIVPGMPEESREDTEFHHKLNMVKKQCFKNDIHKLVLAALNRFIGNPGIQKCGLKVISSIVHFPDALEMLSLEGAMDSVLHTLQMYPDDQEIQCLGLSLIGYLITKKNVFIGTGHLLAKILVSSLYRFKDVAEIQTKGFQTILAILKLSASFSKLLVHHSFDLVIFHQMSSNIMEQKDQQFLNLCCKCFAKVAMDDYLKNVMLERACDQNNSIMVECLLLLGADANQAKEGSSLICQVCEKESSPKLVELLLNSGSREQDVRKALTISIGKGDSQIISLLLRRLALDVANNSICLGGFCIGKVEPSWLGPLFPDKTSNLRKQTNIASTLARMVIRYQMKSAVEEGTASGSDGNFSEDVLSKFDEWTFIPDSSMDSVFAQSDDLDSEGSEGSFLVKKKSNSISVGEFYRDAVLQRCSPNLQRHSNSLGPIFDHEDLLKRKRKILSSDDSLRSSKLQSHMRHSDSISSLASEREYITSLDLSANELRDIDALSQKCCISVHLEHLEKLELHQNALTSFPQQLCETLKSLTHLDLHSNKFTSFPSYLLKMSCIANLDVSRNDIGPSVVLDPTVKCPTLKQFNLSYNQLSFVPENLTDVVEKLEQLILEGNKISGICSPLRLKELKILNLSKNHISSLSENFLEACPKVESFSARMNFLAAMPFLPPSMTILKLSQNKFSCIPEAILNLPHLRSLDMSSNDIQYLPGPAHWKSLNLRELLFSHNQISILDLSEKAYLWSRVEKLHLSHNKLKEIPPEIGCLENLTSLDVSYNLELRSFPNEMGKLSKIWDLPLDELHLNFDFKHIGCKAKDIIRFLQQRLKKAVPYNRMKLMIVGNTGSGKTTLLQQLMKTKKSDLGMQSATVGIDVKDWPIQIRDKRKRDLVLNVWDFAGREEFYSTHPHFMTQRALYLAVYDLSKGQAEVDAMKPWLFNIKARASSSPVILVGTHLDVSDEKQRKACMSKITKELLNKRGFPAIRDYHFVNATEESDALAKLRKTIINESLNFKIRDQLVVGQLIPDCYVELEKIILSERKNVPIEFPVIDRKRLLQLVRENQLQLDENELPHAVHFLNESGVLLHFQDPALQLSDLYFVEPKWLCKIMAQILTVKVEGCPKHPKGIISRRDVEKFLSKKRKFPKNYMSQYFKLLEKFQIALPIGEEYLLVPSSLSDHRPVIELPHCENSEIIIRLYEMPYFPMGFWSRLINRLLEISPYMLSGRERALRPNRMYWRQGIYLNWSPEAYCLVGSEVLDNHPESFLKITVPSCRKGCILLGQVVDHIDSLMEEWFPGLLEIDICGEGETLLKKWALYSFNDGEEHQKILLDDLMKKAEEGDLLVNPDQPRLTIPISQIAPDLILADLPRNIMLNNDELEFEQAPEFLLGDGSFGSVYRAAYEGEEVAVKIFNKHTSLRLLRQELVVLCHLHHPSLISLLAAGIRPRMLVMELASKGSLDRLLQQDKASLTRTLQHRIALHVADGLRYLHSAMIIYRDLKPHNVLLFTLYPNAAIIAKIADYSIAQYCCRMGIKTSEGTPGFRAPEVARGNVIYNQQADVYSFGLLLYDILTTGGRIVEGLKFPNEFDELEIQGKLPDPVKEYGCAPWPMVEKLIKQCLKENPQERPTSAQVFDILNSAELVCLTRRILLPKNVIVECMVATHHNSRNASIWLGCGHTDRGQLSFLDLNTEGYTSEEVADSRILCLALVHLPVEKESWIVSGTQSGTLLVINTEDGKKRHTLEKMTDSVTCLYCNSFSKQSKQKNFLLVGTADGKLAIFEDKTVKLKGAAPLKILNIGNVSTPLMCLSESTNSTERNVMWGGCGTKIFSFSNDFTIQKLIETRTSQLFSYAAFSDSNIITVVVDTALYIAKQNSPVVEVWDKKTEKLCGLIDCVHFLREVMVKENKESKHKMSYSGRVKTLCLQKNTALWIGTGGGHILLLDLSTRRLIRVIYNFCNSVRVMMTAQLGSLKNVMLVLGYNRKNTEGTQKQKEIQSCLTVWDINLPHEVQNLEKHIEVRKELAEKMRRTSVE
Summary of the method: as §1

T1 sequence (Q5S007 whole entry): as the sequence (Q5S007 whole entry G2019S) above, with S2019G counted along it

Structure (SMILES) | pIC50 (LRRK2 WT; class symbols) | pIC50 (LRRK2 G2019S) | pIC50 (LRRK2 WT; numeric bound)
COc1ccc(-c2n[nH]c3ccc(N[C@H]4CCCc5cc(C#N)ccc54)cc23)cc1C (single isomer, unassigned) [Example 73, 5-((3-(4-Methoxy-3-methylphenyl)-1H-indazol-5-yl)amino)-5,6,7,8-tetrahydronaphthalene-2-carbonitrile] | 6.00 to 7.00 | > 7.00 | –
CS(=O)(=O)c1ccc(-c2n[nH]c3ccc(N[C@H]4CCCc5cc(C#N)ccc54)cc23)cc1 (single isomer, unassigned) [Example 74, 5-((3-(4-(Methylsulfonyl)phenyl)-1H-indazol-5-yl)amino)-5,6,7,8-tetrahydronaphthalene-2-carbonitrile] | > 7.00 | > 7.00 | –
C/C=C/c1n[nH]c2ccc(N[C@H]3CCCc4cc(C#N)ccc43)cc12 (single isomer, unassigned) [Example 75, (E)-5-((3-(Prop-1-en-1-yl)-1H-indazol-5-yl)amino)-5,6,7,8-tetrahydronaphthalene-2-carbonitrile] | 6.00 to 7.00 | > 7.00 | –
N#Cc1ccc2c(c1)CCC[C@@H]2Nc1ccc2[nH]nc(-c3cncc(C4CC4)c3)c2c1 (single isomer, unassigned) [Example 76, 5-((3-(5-Cyclopropylpyridin-3-yl)-1H-indazol-5-yl)amino)-5,6,7,8-tetrahydronaphthalene-2-carbonitrile] | > 7.00 | > 7.00 | –
N#Cc1ccc2c(c1)CCC[C@@H]2Nc1ccc2[nH]nc(-c3ccc4c(c3)OCO4)c2c1 (single isomer, unassigned) [Example 77, 5-((3-(Benzo[d][1,3]dioxol-5-yl)-1H-indazol-5-yl)amino)-5,6,7,8-tetrahydronaphthalene-2-carbonitrile] | > 7.00 | > 7.00 | –
N#Cc1ccc2c(c1)CCC[C@@H]2Nc1ccc2[nH]nc(-c3ccc4[nH]ccc4c3)c2c1 (single isomer, unassigned) [Example 78, 5-((3-(1H-Indol-5-yl)-1H-indazol-5-yl)amino)-5,6,7,8-tetrahydronaphthalene-2-carbonitrile] | 6.00 to 7.00 | > 7.00 | –
N#Cc1ccc2c(c1)CCC[C@@H]2Nc1ccc2[nH]nc(-c3ccc[nH]3)c2c1 (single isomer, unassigned) [Example 79, 5-((3-(1H-Pyrrol-2-yl)-1H-indazol-5-yl)amino)-5,6,7,8-tetrahydronaphthalene-2-carbonitrile] | 6.00 to 7.00 | > 7.00 | –
CC(C)(C)OC(=O)n1cccc1-c1n[nH]c2ccc(N[C@H]3CCCc4cc(C#N)ccc43)cc12 (single isomer, unassigned) [Example 80, tert-Butyl 2-(5-((6-cyano-1,2,3,4-tetrahydronaphthalen-1-yl)amino)-1H-indazol-3-yl)-1H-pyrrole-1-carboxylate] | – | 6.00 to 7.00 | < 5.00
N#Cc1ccc2c(c1)CCC[C@@H]2Nc1ccc2[nH]nc(-c3ccc(C(=O)N4CCOCC4)cc3)c2c1 (single isomer, unassigned) [Example 81, 5-((3-(4-(Morpholine-4-carbonyl)phenyl)-1H-indazol-5-yl)amino)-5,6,7,8-tetrahydronaphthalene-2-carbonitrile] | > 7.00 | > 7.00 | –
N#Cc1ccc2c(c1)CCC[C@@H]2Nc1ccc2[nH]nc(-c3ccc4c(c3)NC(=O)C4)c2c1 (single isomer, unassigned) [Example 82, 5-((3-(2-Oxoindolin-6-yl)-1H-indazol-5-yl)amino)-5,6,7,8-tetrahydronaphthalene-2-carbonitrile] | > 7.00 | > 7.00 | –
Cn1cc2cc(-c3n[nH]c4ccc(N[C@H]5CCCc6cc(C#N)ccc65)cc34)ccc2n1 (single isomer, unassigned) [Example 83, 5-((2′-Methyl-1H,2′H-[3,5′-biindazol]-5-yl)amino)-5,6,7,8-tetrahydronaphthalene-2-carbonitrile] | > 7.00 | > 7.00 | –

Reference: patent publication US20230148214A1, “INDAZOLES AND AZAINDAZOLES AS LRRK2 INHIBITORS” (ESCAPE Bio, Inc., priority 2020, published 2023)
